{
  "source": "patent US20220241311A1",
  "about": "“METHODS AND MATERIALS FOR TREATING GLYCOSYLATION DISORDERS” (priority 2018, published 2022)",
  "format_in_all_cases": "in vivo, human",
  "key": {"[1]": {"test_system": "PGM1-CDG patients", "test": "Open-label prospective study of oral D-gal supplementation: safety and tolerability", "excerpt": "(§1) The study design was an open-label prospective study. Patients with biochemically and genetically confirmed PGM1 deficiency were recruited into the study. Individuals with an existing diagnosis of aldolase B deficiency, galactosemia, hemolytic uremic syndrome, severe anemia, galactose intolerance, or intellectual disability were excluded from the study. Nine patients were enrolled in the study, five females and four males. Patient age ranged from 19 months to 21 years old at the time of enrollment (mean age 9.75 years). Informed written consent was obtained before the start of study. A primary end-point was to assess the safety and tolerability of oral D-gal supplementation and to identify physiological biomarkers that are responsive to D-gal supplementation in a heterogeneous genetic background. The effect of D-gal in PGM1-CDG patients was also monitored via glycomics. Secondary endpoints were the restoration of the plasma glycan subfractions, monitored via glycomics (Table 3), and normalization of antithrombin III activity and serum alanine transaminase (ALT) levels.\nParticipants in this pilot study received oral D-gal supplementation, added to the regular diet, over 18 weeks. D-gal (pure and soluble D-galactose powder: D-GALACTOSE or Galaxtra™) was provided as medical food/nutritional supplement. 50 g D-gal equals 5 tablespoons of “powdered sugar”. D-gal was added to a meal once a day. It can be added to any food or drink and has a mildly sweet aftertaste.\n(§2) The D-gal intake was increased over the study period in increments as follows: weeks 0-6 (T0-T1), 0.5 g/kg per day; weeks 6-12 (T1-T2), 1.0 g/kg per day; weeks 12-18 (T2-T3), 1.5 g/kg per day (FIG. 2). The intake was increased gradually to reach the recommended maximum daily dose with minimal gastrointestinal irritation (diarrhea, stomachache, nausea) and metabolic side effects (presence of urinary galactitol).\nTolerability and side effects of oral D-gal supplementation, based on studies in blood (glucose, lactic acid, ammonia, galactose-1-phosphate) and urine (galactitol excretion), were monitored at every time point.\n(§3) Dietary assessment, clinical evaluation (general physical examination and anthropometric measurements), and laboratory and biochemical studies were completed every 6 weeks (T0, T1, T2 and T3).\n(§4) Liver transaminases (aspartate transaminase (AST) and alanine transaminase (ALT)), creatine kinase (CK), commonly assayed glycoproteins (thyroid stimulating hormone (TSH), thyroxine-binding globulin (TBG), and insulin-like growth factor binding protein 3 (IGF3BP)), and coagulation parameters (Factor IX, Factor XI, activated […] (aPTT), and anti-thrombin III (ATIII)), were measured in blood. Patent 1 had additional Factor XI, and XIII measurements. Serum galactose-1-phosphate and urine galactitol were measured to monitor safety and tolerability of galactose supplementation. Biochemical studies to evaluate changes in glycosylation included isoelectric focusing (IEF) of serum transferrin and glycomic analysis in blood by mass spectrometry.\nElectrocardiography/echocardiography and hepatic ultrasonography were conducted at T0 and T3."}, "[2]": {"test_system": "PGM1-CDG patients", "test": "Oral D-gal supplementation: laboratory studies in blood (liver transaminases, coagulation, glycoproteins, CK, glucose)", "excerpt": "as §1, §2, §3, §4\nPatient 1 remained on D-gal 1 g/kg/day after the study period as D-gal is the only currently available compassionate treatment for PGM1-CDG. The parameters monitored during the study period, including additional coagulation factor measurements, have been followed as part of routine care (Table 4).\nQuantitative data are presented as the mean±standard error of the mean."}, "[3]": {"test": "Blood concentration of D-gal after oral dose", "settings": "PGM1-CDG patients; 1-1.5 g/kg/day oral", "description": "An oral dose of 0.3 g/kg D-gal supplement leads to a blood concentration of D-gal at 0.75 mM, 1.0 g/kg D-gal dose corresponds to 2.25 mM peak concentration of D-gal in blood, while an oral dose of 1.5 g/kg galactose supplement leads to a blood peak concentration of 3.5 mM (Tegtmeyer et al. 2014). The blood concentration of free D-galactose in un-supplemented individuals was below 0.01 mM."}, "[4]": {"settings": "patient 1, 1 g/kg/day for additional 12 months"}},
  "data": [
    {"smiles": "O=C[C@H](O)[C@@H](O)[C@@H](O)[C@H](O)CO", "note": "[D-gal, D-galactose]", "values": [
      {"measurement": "Serious adverse events", "setting": "[1]; 18 weeks oral D-gal", "value": "No serious adverse events were reported"},
      {"measurement": "Galactitol excretion in urine", "setting": "[1]; during the trial", "value": "no patients experiencing increased galactitol excretion in urine"},
      {"measurement": "Adverse events", "setting": "[1]; incremental increase in D-gal intake, monitored weekly", "value": "Aside from gastroenteritis in patient 2, no clinical or metabolic adverse events"},
      {"measurement": "Galactose-1-phosphate levels", "setting": "[1]; patients 1, 2, 3, 5, 7, 9, T2 and T3", "value": "no abnormalities were found"},
      {"measurement": "Structural cardiac or liver changes", "setting": "[1]; study endpoint", "value": "No structural cardiac or liver changes were noted"},
      {"measurement": "Clinical rhabdomyolysis", "setting": "[1]; while on galactose supplementation", "value": "none of the patients experienced clinical rhabdomyolysis"},
      {"measurement": "ALT levels", "setting": "[2]; T0 to T2, p=0.05", "value": "significantly decreased"},
      {"measurement": "ATIII, T0 vs T3", "setting": "[2]; all patient data, P=0.020", "value": "significant difference"},
      {"measurement": "AST", "setting": "[2]; all patients except patient 2, 18 weeks", "value": "did not normalize at 18 weeks, it fell below baseline"},
      {"measurement": "AST", "setting": "[2]; all patients, 6 weeks", "value": "moderately declined"},
      {"measurement": "AST", "setting": "[2]; all patients, 12 weeks vs baseline", "value": "declined by 23% to more than 10-fold"},
      {"measurement": "Creatine kinase and glucose levels", "setting": "[2]; during the study", "value": "fluctuated and remained abnormal"},
      {"measurement": "Frequency of hypoglycemic episodes", "setting": "[2]; during the study", "value": "decreased significantly in four patients"},
      {"measurement": "Laboratory parameters at 1.5 g/kg/day compared to 1 g/kg/day", "setting": "[2]; last 6 weeks of the trial", "value": "did not lead to significant improvement"},
      {"measurement": "ALT, aPTT, ATIII, TSH, TBG, long-term", "setting": "[2]; [4]", "value": "remained stable"},
      {"measurement": "Factor XI and Factor XIII, long-term", "setting": "[2]; [4]", "value": "returned to before-treatment levels"},
      {"measurement": "ATIII", "setting": "[2]; patient 1, 18 weeks", "value": "remained within normal range"},
      {"measurement": "Factor XI", "setting": "[2]; patient 1, after 12-18 weeks", "value": "normalized"},
      {"measurement": "Factor XIII", "setting": "[2]; patient 1, after 12-18 weeks", "value": "normalized"},
      {"measurement": "Creatine kinase decrease, long-term", "setting": "[2]; patient 1, over the course of one year", "value": "~80", "unit": "%"},
      {"measurement": "TSH", "setting": "[2]; patient 2 (abnormal baseline)", "value": "normalized at 18 weeks"},
      {"measurement": "ATIII vs baseline", "setting": "[2]; patient 2, 18 weeks", "value": "twofold higher than baseline"},
      {"measurement": "AST", "setting": "[2]; patient 2, 18 weeks, after discontinuing galactose for 2 weeks", "value": "spiked upwards, almost reaching baseline"},
      {"measurement": "ALT, excess over baseline", "setting": "[2]; patient 2, 18 weeks, intercurrent illness", "value": 18, "unit": "%"},
      {"measurement": "ATIII drop", "setting": "[2]; patient 2, following illness and cessation of galactose intake", "value": 30, "unit": "%"},
      {"measurement": "IGFBP-3", "setting": "[2]; patient 3", "value": "normalized at 18 weeks"},
      {"measurement": "TSH", "setting": "[2]; patient 5 (abnormal baseline)", "value": "normalized at 6 weeks and remained stable at 12 and 18 weeks"},
      {"measurement": "ALT decrease", "setting": "[2]; patient 5, 6 weeks", "value": 43, "unit": "%"},
      {"measurement": "ATIII", "setting": "[2]; patient 5, 6 weeks", "value": "transiently normalized"},
      {"measurement": "ALT above the upper limit of normal", "setting": "[2]; patient 5, 12 and 18 weeks", "value": 3, "unit": "%"},
      {"measurement": "ATIII below the lower limit of normal", "setting": "[2]; patient 5, 12 and 18 weeks", "value": 8, "unit": "%"},
      {"measurement": "IGFBP-3", "setting": "[2]; patient 6, 12 weeks", "value": "slight improvement"},
      {"measurement": "IGFBP-3 below the lower limit of normal", "setting": "[2]; patient 6, 12 weeks", "value": "about 50%"},
      {"measurement": "TBG below the lower limit of normal", "setting": "[2]; patient 6, 12 weeks", "value": 8, "unit": "%"},
      {"measurement": "TBG improvement", "setting": "[2]; patient 6, 12 weeks", "value": 30, "unit": "%"},
      {"measurement": "TBG higher than the upper limit of normal", "setting": "[2]; patient 9, 18 weeks", "value": 80, "unit": "%"},
      {"measurement": "TBG decline", "setting": "[2]; patient 9, 18 weeks, baseline twofold the upper limit of normal", "value": 12, "unit": "%"},
      {"measurement": "ALT", "setting": "[2]; patients 1, 2, 4, 7 (abnormal baseline)", "value": "normalized at 6 or 12 weeks"},
      {"measurement": "Factor IX levels", "setting": "[2]; patients 1, 2, 5, 6, 9, 18 weeks", "value": "remained normal"},
      {"measurement": "IGFBP-3", "setting": "[2]; patients 1 and 2", "value": "normalized at 12 weeks and remained stable at 18 weeks"},
      {"measurement": "TBG", "setting": "[2]; patients 1 and 2", "value": "normalized at 6 weeks and remained stable at 12 and 18 weeks"},
      {"measurement": "ATIII", "setting": "[2]; patients 1 and 2, 12 weeks", "value": "normalized"},
      {"measurement": "aPTT", "setting": "[2]; patients 1 and 7 (abnormal baseline)", "value": "normalized at 6 and 12 weeks, respectively"},
      {"measurement": "aPTT", "setting": "[2]; patients 2, 3, 5, 6 (normal baseline)", "value": "remained stable"},
      {"measurement": "Peak concentration of galactose in blood", "setting": "[3]", "value": "0.75 to 2", "unit": "mM"}
    ]}
  ]
}
